In publication PMC12655637, “Design, Synthesis, and Mechanistic Study of Novel Ciprofloxacin/Thiazole Chalcone Hybrids as Potential Anticancer Agents” (Pharmaceuticals, 2025):
pIC50: −log10 of the molar value.

Tests used:
Experiment in all cases: NCI-60 screening, one-dose (10 µM) and five-dose, SRB
[1] = tested on: NCI-H522; type: cell-based, human; conditions: five-dose; NCI-H522
[2] = tested on: NCI/ADR-RES; type: cell-based, human
[3] = tested on: OVCAR-8; type: cell-based, human
[4] = tested on: 786−0; type: cell-based, human
[5] = tested on: SR; type: cell-based, human; conditions: five-dose
[6] = tested on: SF-295; type: cell-based, human
[7] = tested on: SNB-19; type: cell-based
[8] = tested on: T-47D; type: cell-based, human; conditions: five-dose
[9] = tested on: CCRF-CEM; type: cell-based, human
[10] = tested on: HOP-62; type: cell-based, human; conditions: five-dose, HOP-62
[11] = tested on: MCF7; type: cell-based, human
[12] = tested on: UACC-257; type: cell-based, human
[13] = tested on: K-562; type: cell-based, human; conditions: five-dose, K-562
[14] = tested on: DU-145; type: cell-based, human
[15] = tested on: MDA-MB-435; type: cell-based; conditions: MDA-MB-435
[16] = tested on: BT-549; type: cell-based
[17] = Homo sapiens, five-dose, read-out: LC50 (the source's name)
[18] = Homo sapiens, five-dose, OVCAR-8
[19] = Homo sapiens, read-out: LC50 (the source's name)
[20] = Homo sapiens, five-dose, SF-295
[21] = Homo sapiens, five-dose, SNB-19
[22] = Homo sapiens, five-dose, UACC-257
[23] = Homo sapiens, five-dose, DU-145
[24] = Homo sapiens, five-dose, BT-549

Cc1nc(SCC(=O)N2CCN(c3cc4c(cc3F)c(=O)c(C(=O)O)cn4C3CC3)CC2)sc1C(=O)/C=C/c1cccc(Cl)c1 [Compound 4b, (E)-7-(4-(2-((5-(3-(3-Chlorophenyl)acryloyl)-4-methylthiazol-2-yl)thio)acetyl)piperazin-1-yl)-1-cyclopropyl-6-fluoro-4-oxo-1,4-dihydroquinoline-3-carboxylic Acid]
TGI [1]: 100.0 µM
activity at 10 µM ([2]; Homo sapiens, 10 μM, Ovarian Cancer, read-out: Growth percentage): 112%
GI50 ([2]; Homo sapiens, five-dose): > 100 µM
pIC50 ([2]; Homo sapiens, five-dose): < 4.00
CC50 [2, 17]: > 100 µM
TGI ([2]; five-dose): 100.0 µM
activity at 10 µM ([3]; Homo sapiens, 10 μM, OVCAR-8, Ovarian Cancer, read-out: Growth percentage): 46.1%
GI50 [3, 18]: > 100 µM
pIC50 [3, 18]: < 4.00
CC50 ([3]; Homo sapiens, five-dose, OVCAR-8, read-out: LC50 (the source's name)): > 100 µM
TGI ([3]; five-dose, OVCAR-8): 100.0 µM
activity at 10 µM ([4]; Homo sapiens, 10 μM, 786−0, Renal Cancer, read-out: Growth percentage): 74.3%
GI50 ([4]; Homo sapiens, five-dose, 786−0): > 100 µM
pIC50 ([4]; Homo sapiens, five-dose, 786−0): < 4.00
CC50 ([4]; Homo sapiens, five-dose, 786−0, read-out: LC50 (the source's name)): > 100 µM
TGI ([4]; five-dose, 786−0): 100.0 µM
GI50 ([5]; Homo sapiens): 1.8 µM
pIC50 ([5]; Homo sapiens): 5.49
CC50 [5, 19]: 9.1 µM
TGI [5]: 4.1 µM
activity at 10 µM ([6]; Homo sapiens, 10 μM, SF-295, CNS Cancer, read-out: Growth percentage): 93.3%
GI50 [6, 20]: > 100 µM
pIC50 [6, 20]: < 4.00
CC50 ([6]; Homo sapiens, five-dose, SF-295, read-out: LC50 (the source's name)): > 100 µM
TGI ([6]; five-dose, SF-295): 100.0 µM
activity at 10 µM ([7]; Homo sapiens, 10 μM, SNB-19, CNS Cancer, read-out: Growth percentage): 54.7%
GI50 [7, 21]: 22.4 µM
pIC50 [7, 21]: 4.31
CC50 ([7]; Homo sapiens, five-dose, SNB-19, read-out: LC50 (the source's name)): > 100 µM
TGI ([7]; five-dose, SNB-19): 100.0 µM
GI50 ([8]; Homo sapiens, T47D): > 100 µM
pIC50 ([8]; Homo sapiens, T47D): < 4.00
CC50 ([8]; Homo sapiens, T47D, read-out: LC50 (the source's name)): > 100 µM
TGI [8]: 100.0 µM
activity at 10 µM ([9]; Homo sapiens, 10 μM, Leukemia, read-out: Growth percentage): 49.7%
GI50 ([9]; Homo sapiens, five-dose): 6.9 µM
pIC50 ([9]; Homo sapiens, five-dose): 4.93
CC50 [9, 17]: > 100 µM
TGI ([9]; five-dose): 31.6 µM
GI50 ([10]; Homo sapiens): 4.3 µM
pIC50 ([10]; Homo sapiens): < 4.00
CC50 [10, 19]: > 100 µM
TGI [10]: 100.0 µM
activity at 10 µM ([11]; Homo sapiens, MCF7, 10 μM, MCF7, Breast Cancer, read-out: Growth percentage): 6.5%
GI50 ([11]; Homo sapiens, five-dose, MCF7): 0.4 µM
pIC50 ([11]; Homo sapiens, five-dose, MCF7): 6.22
CC50 ([11]; Homo sapiens, five-dose, MCF7, read-out: LC50 (the source's name)): > 100 µM
TGI ([11]; five-dose, MCF7): 3.5 µM
activity at 10 µM ([12]; Homo sapiens, 10 μM, UACC-257, Melanoma, read-out: Growth percentage): 77.9%
GI50 [12, 22]: > 100 µM
pIC50 [12, 22]: < 4.00
CC50 ([12]; Homo sapiens, five-dose, UACC-257, read-out: LC50 (the source's name)): > 100 µM
TGI ([12]; five-dose, UACC-257): 100.0 µM
GI50 ([13]; Homo sapiens, K562): 4.2 µM
pIC50 ([13]; Homo sapiens, K562): 5.31
CC50 ([13]; Homo sapiens, K562, read-out: LC50 (the source's name)): > 100 µM
TGI [13]: 100.0 µM
activity at 10 µM ([14]; Homo sapiens, 10 μM, DU-145, Prostate Cancer, read-out: Growth percentage): 94.6%
GI50 [14, 23]: > 100 µM
pIC50 [14, 23]: < 4.00
CC50 ([14]; Homo sapiens, five-dose, DU-145, read-out: LC50 (the source's name)): > 100 µM
TGI ([14]; five-dose, DU-145): 100.0 µM
GI50 ([15]; Homo sapiens): 3.5 µM
pIC50 ([15]; Homo sapiens): 5.13
CC50 [15, 17]: > 100 µM
TGI ([15]; five-dose): 52.5 µM
activity at 10 µM ([16]; Homo sapiens, 10 μM, BT-549, Breast Cancer, read-out: Growth percentage): -62.2%
GI50 [16, 24]: 15.8 µM
pIC50 [16, 24]: 4.45
CC50 ([16]; Homo sapiens, five-dose, BT-549, read-out: LC50 (the source's name)): 85.1 µM
TGI ([16]; five-dose, BT-549): 36.3 µM
